Measurements taken from patent US9783852B2, “Method for assessing embryotoxicity” (priority 2008, dated 2017).
Values after ≈ are worked out from the molar mass of the structure shown. Like-named read-outs stand apart in the source and are kept apart here.

Experiments:
[1] = known classification of the test chemicals used; cited from earlier work
[2] = tested on: balb/c 3T3 cells cloneA31; test: 3T3 cell proliferation test (CellTiter-Glo); type: cell-based; conditions: Mus musculus, BALB/c3T3, 144 h, read-out: 3T3 IC50 (50% inhibitory concentration for cell growth)
Method: In addition, using balb/c 3T3 cells cloneA31 obtained from ATCC (hereinafter, 3T3 cells), the effects of each test chemical on cell proliferation were evaluated by the following method. The 3T3 cells cultured in DMEM medium containing 10% heat inactivated fetal bovine serum, 2 mM glutamine, penicillin and streptomycin (medium for 3T3) in an incubator at 37° C. and 5% CO2 were dispersed using 0.25% trypsin/1 mM EDTA, and thereafter, the cells were suspended in the medium for 3T3. Residual trypsin was removed by centrifugation and suction of the supernatant, and the cells were suspended in the medium for 3T3. Thereafter, the number of cells was counted using a small amount of the cell solution, and a cell suspension was prepared so as to have a cell number of 10,000 cells/mL. The prepared cell suspensions were added with only solvent such as PBS(−) or DMSO as a solvent control or added with a test chemical prepared by diluting with solvent into several levels. Thereafter, each cell suspension was seeded in a white 96-well plate for cell culture in a volume of 50 μL, and the culture was performed for 3 days. On day 3, 50 μL of the medium for 3T3 supplemented with the test chemical again prepared was added, and the culture was continued for 3 days. On day 6, the supernatant of each well was removed by suction, then, each well was supplemented with the solution in a CellTiter-Glo™ Luminescent Cell Viability Assay kit (Promega) and shaken for 30 minutes, and thereafter, the activity was measured with a TopCount NXT luminescence detection counter. […] The activity values obtained from each test of the Hand1-ES cells and the 3T3 cells were averaged and tallied for the solvent control group and every concentration of the test chemical, and thereafter, a relative value of each concentration was calculated using the average value of the solvent control group as 100%.

[3] = tested on: Hand1-ES cells; test: Hand1-ES cell luciferase reporter test during myocardial differentiation; conditions: for Hand1-ES ID50 (50% inhibitory concentration for differentiation): concentration at which 50% of the luciferase activity is inhibited, day 6, medium for myocardial differentiation
Method: Hand1-ES cell line was cultured while maintaining an undifferentiated state in DMEM medium containing 15% heat inactivated fetal bovine serum supplemented with LIF containing 100 μg/mL G418. The undifferentiated Hand1-ES cells were dispersed using 0.25% trypsin/1 mM EDTA, and thereafter, the cells were suspended in DMEM medium containing 15% heat inactivated fetal bovine serum. Residual trypsin was removed by centrifugation and suction of the supernatant, and the cells were suspended in DMEM medium containing 15% heat inactivated fetal bovine serum not containing LIF (hereinafter, medium for myocardial differentiation). Thereafter, the number of cells was counted using a small amount of the cell solution, and a cell suspension (medium for myocardial differentiation) was prepared so as to have a cell number of 15,000 cells/mL. The prepared cell suspensions were added with only solvent such as PBS(−) or DMSO as a solvent control or added with a test chemical prepared by diluting with solvent into several levels, and thereafter, each cell suspension was seeded in a nonadherent U-bottom 96-well plate in a volume of 50 μL, and the culture was performed for 3 days. On day 3, 50 μL of the medium for myocardial differentiation supplemented with the test chemical again prepared was added, and the suspension culture was continued for 3 days. On day 6, 100 μL of a luciferase luminescent reagent, Steady-Glo (Promega), was added to each well and shaken for 30 minutes, and thereafter, the total amount was transferred to a 96-well white plate, and the luciferase activity was measured with a TopCount NXT luminescence detection counter (Packard Japan). The obtained activity values were averaged and tallied for the solvent control group and every concentration of the test chemical.

[4] = day 6, CellTiter-Glo luminescence

SMILES | in vivo embryotoxicity [1] | IC50 [2, 4] [µg/mL] | Embryotoxicity assessment from comparing Hand1-ES ID50 with 3T3 IC50 [3] | Hand1-ES ID50 (50% inhibitory concentration for differentiation) [3] [µg/mL] | Embryotoxicity assessment from comparing Hand1-ES ID50 with 3T3 IC50 ([3]; ID50<IC50 = embryotoxic, ID50 larger than IC50 = not shown) | IC50 [2] [µg/mL]
C[C@@H]1C[C@H]2[C@@H]3CCC4=CC(=O)C=C[C@]4(C)[C@@]3(F)[C@@H](O)C[C@]2(C)[C@@]1(O)C(=O)CO [dexamethasone] | positive | 36.7 (≈ 93.5 µM) | has embryotoxicity | 15.6 |  | 
O=c1[nH]cc(F)c(=O)[nH]1 [5-fluorouracil] | positive | 0.16 (≈ 1.23 µM) | has embryotoxicity | 0.02 |  | 
O=c1[nH]c(=O)n([C@H]2C[C@H](O)[C@@H](CO)O2)cc1Br [5-bromo-2′-deoxyuridine] | positive | 0.8 (≈ 2.61 µM) | has embryotoxicity | 0.12 |  | 
NC(=O)NO [hydroxyurea] |  | 4.7 (≈ 61.8 µM) | has embryotoxicity | 2.5 |  | 
C=CC(N)=O [acrylamide] | negative | 54 (≈ 760 µM) |  | 85.3 | embryotoxicity is not shown | 
O=C1O[C@H]([C@@H](O)CO)C(O)=C1O [ascorbic acid] |  |  | embryotoxicity is not shown | 28.3 |  | 2 (≈ 11.4 µM)
